Drawing on a melting point compilation (Tetko et al.; mined from patent text by program, amines drawn as free bases though some values may be those of a salt), this text covers melting point for 62 compounds.

Bounds are passed on as bounds.

Broadly, the melting point is the temperature, or range, at which the solid turns liquid. `COc1c(C(=O)O)nc(Br)c(Cl)c1N`: the melting point was 154 to 156 °C.
The compound `CS(=O)(=O)c1ccc(-c2cc(Cl)c(Cl)cc2-c2ccc(F)cc2)cc1` registered a melting point of 144 °C.
Regarding `C#CC[C@H](c1nc2cc(Cl)ccc2c(=O)n1Nc1ccccc1)N(CCCN1C(=O)c2ccccc2C1=O)C(=O)c1cccc(Cl)c1F`, the melting point fell in the range of 130 to 132 °C.
In turn, `O=c1[nH]c2sc3ccc(I)cc3c2[nH]c1=O` showed a melting point greater than 300 °C.
`CCC(C)Nc1c(-c2ccc(OC)cc2Cl)c(Cl)nc2ncnn12` (configuration not stated) yielded a melting point of 116 °C.
On to `CCCc1c(OCCCOc2ccc(C(=O)C(=O)O)cc2)ccc(C(C)=O)c1O`, for which the melting point was in the range of 129 to 130 °C.
For `CNC(=O)Oc1cnn(C(C)C)c1`, the melting point was 40 °C.
In turn, `COC(=O)c1c(Oc2nc(OC)cc(OC)n2)ccc2ncccc12` displayed a melting point of 160 to 162 °C.
For `CC12CCC(C(=O)Nc3ccc(CC#N)cc3)(OC1=O)C2(C)C` (configuration not stated) the value was 147 to 152 °C.
For `COc1ccc(CNc2ncnc3c2ncn3C2OC(Cn3cc(Cc4ccccc4)nn3)C(O)C2O)cc1` (configuration not stated) the value was 123 to 124 °C.
As for `CCOC(=O)Cc1ccc2c(c1)sc1ccc(Cl)cc12`, the melting point fell in the range of 88 to 90 °C.
In the case of `OCc1cccc2nc(-c3ccncc3)oc12`, the melting point fell in the range of 146 to 147 °C.
`COc1ccc(Nc2ccnc3nc(C)c(O)cc23)cc1` came in with a melting point of 169 to 174 °C.
For `N#Cc1ccc2c(c1)c1cc(C(=N)Nc3cccc(C(F)(F)F)c3)ccc1n2Cc1ccccc1` the value was 210 to 220 °C.
On to `CCOC(=O)C(C(=O)OCC)C(=O)C(C)Oc1ccc(Oc2ccc(C#N)cc2)cc1` (configuration not stated), for which the melting point is 42 to 46 °C.
For `Cc1cc(-c2cc(CO)c(=O)n(Cc3ccccc3Cl)n2)ccc1F` the value was 149 to 150 °C.
The compound `Cc1ccc(C(=O)Nc2cc3c(cc2N)C(C)(C)CCC3(C)C)cc1` showed a melting point of 180 °C.
`Nc1c(F)c(F)cc2c1c(=O)c(C(=O)O)cn2C1COC1`: the melting point is greater than 300 °C.
`CCC(=C(c1ccc(I)cc1)c1ccc(OCCCCl)cc1)c1ccccc1`: the melting point lay within 98 to 100 °C.
For `COC(=O)c1cccc2c(Br)c(OC)ccc12`, the melting point came out at 119 °C.
The value for `c1ccc2[nH]c(SCc3cn4ccccc4n3)nc2c1` was 220 to 222 °C; that for `N=C(N)Nc1nc(-c2ccccc2[N+](=O)[O-])c2cc(Cl)ccc2n1` was 150 °C.
The value for `CCN(Cc1ccccc1)c1nc(=O)c2cc(C(F)(F)F)cc([N+](=O)[O-])c2s1` was 94 to 97 °C.
Regarding `O=c1c(Cc2ccncc2)cc2cccnc2n1-c1cccc([N+](=O)[O-])c1`, the melting point came out at 230 °C.
Consider `N#CCCC(=O)c1ccccc1`, for which the melting point worked out at 69 °C.
The value for `CC[Si](C#CC1(CO)OC(n2ccc(=O)[nH]c2=O)C(O)C1O)(CC)CC` (configuration not stated) was 183 to 186 °C.
With `CN(CCN1CCC(=C(c2ccccc2)c2ccccc2)CC1)c1ncccn1`, the melting point is 98 to 100 °C.
On to `CCOC(=O)c1c(S(C)(=O)=O)c(N=O)c2ccccn12`, for which the melting point was in the range of 143 to 144 °C.
On to `CCCCCCCCCCCCOCC1CN(c2cc3c(cc2F)c(=O)c(C(=O)O)cn3CC)CCN1C` (configuration not stated), for which the melting point lay within 166 to 168 °C.
`O=c1oc(-c2ccccc2)cc(O)c1Sc1cccc(Cl)c1` came in with a melting point of 181 to 182 °C.
For `N#CC(C(=O)O)=C(c1ccc(F)cc1)c1ccc(F)cc1`, the melting point fell in the range of 180 to 181 °C.
`COC(=O)c1ccc(Cl)c(C#N)c1` came in with a melting point of 193 °C.
The value for `CCC(NC(=O)OC)c1ccc(Cl)c2nc3n(c12)CCCN3c1ccc(Cl)cc1Cl` (configuration not stated) was 201 to 203 °C.
The value for `CC1N=C(c2cccnc2)NC1=O` (configuration not stated) was 238 to 241 °C; that for `Cc1cc(C)c(O)c(Cc2cc(C)cc(C)c2O)c1` was 125 to 126 °C; that for `O=Cc1c(OCc2ccccc2)ccc2ccccc12` was 120 to 121 °C.
For `ClC(=NNc1ccccc1)c1ccc(Cl)c(Cl)c1`, the melting point was 121 to 124 °C.
Take `CCC1CC(=O)N(Cc2ccc(N)cc2)N=C1c1ccc(OC)c(OC2CCCC2)c1` (configuration not stated): the melting point is 109 °C.
The value for `CCCCCCCCCCOc1ccccc1C(N)=O` was 58 to 59 °C.
`O=C(O)c1ccc(NCCCCCCCc2ccccc2)cc1` had a melting point of 123 to 126 °C.
`CC(C)(C)c1cc(CCc2ccccc2NC(=O)N2CCCCC2CCOCc2ccccc2)cc(C(C)(C)C)c1O` (configuration not stated) displayed a melting point of 113 to 114 °C.
For `C#CC1(Oc2ccc(F)cc2[N+](=O)[O-])CCN(C)CC1` the value was 70 to 73 °C.
Compound `COC(=O)c1c(OCc2ccc(-c3ccccc3-c3nnn[nH]3)cc2)cc(C)nc1Cl` gave a melting point of 204 to 207 °C.
With `CCOC(=O)C(=NOC)C1=CSCCS1`, the melting point is 65 to 67 °C.
The value for `O=[N+]([O-])c1cc(C(F)(F)F)ccc1C(O)c1cnoc1C1CC1` (configuration not stated) was 76 °C.
The value for `CCCCCN(CCC12CC3CC(CC(C3)C1)C2)C(=O)NCC(Cc1ccccc1)Cc1ccncc1` (configuration not stated) was 111 to 116 °C; that for `OCc1nc(/C=C/c2ccccc2)ns1` was 119 to 120 °C.
For `CC(C)CC(NC(=O)N1CCCCCC1)C(=O)NC(Cc1ccc(C#Cc2ccccc2)cc1)C(=O)NC(C)(C)C` (configuration not stated), the melting point was in the range of 115 to 117 °C.
Regarding `COc1ccc(N(S(C)(=O)=O)S(C)(=O)=O)cc1CN1CCC(=O)C(C(c2ccccc2)c2ccccc2)C1` (configuration not stated), the melting point lay within 132 to 135 °C.
In turn, `CC(C)NC(=O)C(C)(F)c1ccc(OS(=O)(=O)C(F)(F)F)cc1` (configuration not stated) returned a melting point of 90 to 92 °C.
The value for `COc1ccc(/C=C/C(=O)C2C(=O)CC(c3ccc(OC)cc3)C([N+](=O)[O-])C2c2ccc(OC)c(OC)c2)cc1` (configuration not stated) was 126 to 128 °C; that for `Nc1cccc(CCN2CCN(c3nsc4ccccc34)CC2)c1` was 108 °C.
Take `CCCCCCCCCCCCCCCCCCOc1cc(OCCCCC(=O)O)cc(N(CC(=O)O)CC(=O)O)c1`: the melting point was in the range of 126 to 128 °C.
`CC1=C(/C=C/C(C)=C/C=C/C(C)=C/C(=O)OCOC(=O)Oc2ccc([N+](=O)[O-])cc2)C(C)(C)CCC1`: the melting point was 35 to 36 °C.
The value for `ON=Cc1cc(OCC(F)(F)F)ccc1OCc1ccccc1` was 93 to 95 °C; that for `COc1ccc(-c2cnc3ccc(-c4nnc(SCc5cccc(C(F)(F)F)c5)o4)cn23)cc1` was 104 to 105 °C.
Turning to `C[Si](C)(C)CCOCn1ccc2c(=O)[nH]ncc21`, the melting point is 147 to 148 °C.
Compound `CC1(Cc2ccccc2)Cc2cc(OCC(=O)O)c(Cl)c(Cl)c2C1=O` (configuration not stated) yielded a melting point of 167 to 168 °C.
The value for `COC(=O)C(c1ccccc1Cl)C1CNc2sc(OC(=O)c3ccc([N+](=O)[O-])cc3)cc2C1` (configuration not stated) was 100 to 102 °C; that for `COc1ccc(CS(=O)(=O)/C(=C/c2c(OC)cc(OC)cc2OC)C(=O)c2ccc(OC)cc2)cc1` was 60 to 62 °C.
Take `N#Cc1ccc(N(Cc2ccc3c(c2)NS(=O)(=O)O3)n2ccnc2)cc1`: the melting point was determined as 230 °C.
The value for `CC(C)c1ccc(C2COc3ccc(NC(=O)CC(C)(C)C)cc32)cc1` (configuration not stated) was 119 to 120 °C.
